Measured values published in ChEMBL document CHEMBL6182863, “Discovery of novel rigid STING PROTAC degraders as potential therapeutics for acute kidney injury” (Eur J Med Chem, 2025).
≈ marks a conversion by molar mass, not a printed value. Calls of active or inactive are those of the source. The rule behind the calls is not given here.

Experiments:
[1] = Acute toxicity in C57BL/6J mouse assessed as change in body weight at 30 mg/kg; assay type: organism-based; settings: in vivo
[2] = system: H9c2; experiment: Cytotoxicity against rat H9c2 cells assessed as reduction in cell viability at 0.5 to 120 uM incubated for 24 hrs by MTT assay; assay type: toxicity, cell-based; settings: h9c2, 24 h, dose 0.5-120 µM
[3] = system: BV-2; experiment: Cytotoxicity against mouse BV-2 cells assessed as reduction in cell viability at > 60 uM incubated for 24 hrs by MTT assay; assay type: toxicity, cell-based; settings: bv-2, 24 h
[4] = system: HK-2; experiment: Inhibition of ROS formation in human HK-2 cells measured after 24 hrs in presence of cisplatin by DAPI staining based fluorescence microscopic analysis; assay type: functional, cell-based; settings: dose 1.25-5 µM
[5] = system: Mus musculus; experiment: Renoprotective activity against cisplatin-induced C57BL/6J mouse acute kidney injury model assessed as decrease in body weight at 25 to 50 mg/kg, ip measured after 72 hrs; assay type: functional, organism-based; settings: dose 25-50 mg/kg
[6] = MRT (0 to infinity) in male Sprague-Dawley rat at 2 mg/kg, iv measured after 12 hrs by LC-MS/MS analysis; assay type: ADME, organism-based; settings: in vivo
[7] = Metabolic stability in human liver microsomes assessed as metabolic factor relative to control; assay type: ADME, Microsome
[8] = Toxicity in cisplatin-induced acute kidney injury C57BL/6J mouse model assessed as morphological abnormality in heart at 25 to 50 mg/kg, ip by H and E staining based analysis; assay type: organism-based; settings: in vivo, dose 25-50 mg/kg
[9] = system: HK-2; experiment: Inhibition of STING downstream signal pathway in cisplatin stimulated human HK-2 cells assessed as reduction in P-P65 level by […] analysis; assay type: cell-based; settings: dose 1.25-5 µM
[10] = Water solubility of the compound at 2 mg by HPLC analysis; assay type: physicochemical
[11] = Acute toxicity in C57BL/6J mouse assessed as change in body weight at 43 mg/kg; assay type: organism-based; settings: in vivo
[12] = system: THP-1; experiment: PROTAC activity at CRBN/AMPK in human THP-1 cells assessed as induction of AMPK degradation at 1.25 to 20 uM measured after 24 hrs by Western blotting analysis; assay type: cell-based; settings: dose 1.25-20 µM
[13] = MRT (0 to t) in male Sprague-Dawley rat at 2 mg/kg, iv measured after 12 hrs by LC-MS/MS analysis; assay type: ADME, organism-based; settings: in vivo
[14] = Apparent volume of distribution in male Sprague-Dawley rat at 2 mg/kg, iv measured after 12 hrs by LC-MS/MS analysis; assay type: ADME, organism-based; settings: in vivo, read-out: Vz
[15] = system: THP-1; experiment: PROTAC activity at CRBN/STAT3 in human THP-1 cells assessed as induction of STAT3 degradation at 1.25 to 20 uM by Western blotting analysis; assay type: cell-based; settings: dose 1.25-20 µM
[16] = Cmax in male Sprague-Dawley rat at 2 mg/kg, iv measured after 12 hrs by LC-MS/MS analysis; assay type: ADME, organism-based; settings: in vivo
[17] = system: THP-1; experiment: PROTAC activity at CRBN/LKB1 in human THP-1 cells assessed as induction of LKB1 degradation at 1.25 to 20 uM by Western blotting analysis; assay type: cell-based; settings: dose 1.25-20 µM
[18] = system: THP-1; experiment: PROTAC activity at CRBN/ERK in human THP-1 cells assessed as induction of ERK degradation at 1.25 to 20 uM measured after 24 hrs by Western blotting analysis; assay type: cell-based; settings: dose 1.25-20 µM
[19] = target: T1, Protein cereblon/Stimulator of interferon genes protein (Homo sapiens, UniProt Q96SW2+Q86WV6); experiment: PROTAC activity at CRBN/STING in human THP-1 cells assessed as induction of STING degradation at 5 uM incubated for 24 hrs in presence of bafilomycin by Western blotting analysis; assay type: cell-based
Target sequence in this assay (Q86WV6 whole entry, looked up): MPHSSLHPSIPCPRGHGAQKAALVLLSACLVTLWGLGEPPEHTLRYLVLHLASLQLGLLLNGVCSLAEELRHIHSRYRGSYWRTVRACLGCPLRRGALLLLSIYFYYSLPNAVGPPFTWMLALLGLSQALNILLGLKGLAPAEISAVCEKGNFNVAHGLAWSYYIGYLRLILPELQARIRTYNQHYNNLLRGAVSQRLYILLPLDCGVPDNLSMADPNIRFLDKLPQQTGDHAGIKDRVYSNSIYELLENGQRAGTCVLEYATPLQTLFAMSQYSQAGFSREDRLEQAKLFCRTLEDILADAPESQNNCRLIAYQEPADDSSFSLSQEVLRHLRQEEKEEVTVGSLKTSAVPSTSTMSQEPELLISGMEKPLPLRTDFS
Target sequence in this assay (Q96SW2 whole entry, looked up): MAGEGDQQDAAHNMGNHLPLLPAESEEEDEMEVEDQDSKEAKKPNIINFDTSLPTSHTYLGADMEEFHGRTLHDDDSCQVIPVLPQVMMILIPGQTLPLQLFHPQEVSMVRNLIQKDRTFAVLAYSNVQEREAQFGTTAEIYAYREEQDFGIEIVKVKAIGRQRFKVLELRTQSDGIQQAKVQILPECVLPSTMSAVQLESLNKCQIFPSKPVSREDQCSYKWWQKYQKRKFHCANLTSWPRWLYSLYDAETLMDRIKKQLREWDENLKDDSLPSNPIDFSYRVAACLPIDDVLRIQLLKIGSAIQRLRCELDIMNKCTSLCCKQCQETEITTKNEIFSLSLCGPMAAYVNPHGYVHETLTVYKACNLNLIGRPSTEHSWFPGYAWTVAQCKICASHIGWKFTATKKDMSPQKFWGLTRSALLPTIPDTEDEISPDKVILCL

[20] = target: T1, Protein cereblon/Stimulator of interferon genes protein; experiment: PROTAC activity at CRBN/STING in human THP-1 cells assessed as induction of STING degradation at 5 uM measured after 24 hrs by Western blotting analysis relative to control; assay type: cell-based
Target sequence in this assay (Q86WV6 whole entry, looked up): as the sequence (Q86WV6 whole entry, looked up) above
Target sequence in this assay (Q96SW2 whole entry, looked up): as the sequence (Q96SW2 whole entry, looked up) above

[21] = Acute toxicity in C57BL/6J mouse assessed as survival at 30 to 179 mg/kg; assay type: organism-based; settings: in vivo, dose 30-179 mg/kg
[22] = AUC (0 to infinity) in male Sprague-Dawley rat at 2 mg/kg, iv measured after 12 hrs by LC-MS/MS analysis; assay type: ADME, organism-based; settings: in vivo
[23] = AUC (0 to t) in male Sprague-Dawley rat at 2 mg/kg, iv measured after 12 hrs by LC-MS/MS analysis; assay type: ADME, organism-based; settings: in vivo
[24] = target: T2, Protein cereblon/Stimulator of interferon genes protein (Mus musculus) (UniProt Q3TBT3+Q8C7D2); experiment: In vivo inhibition of STING/TBK1/NF-kappaB signaling in C57BL/6J mouse assessed as decrease in serum IFN-beta level at 25 to 50 mg/kg, ip measured after 72 hrs by ELISA; assay type: functional, organism-based; settings: dose 25-50 mg/kg
[25] = Acute toxicity in C57BL/6J mouse assessed as mortality at 30 to 179 mg/kg; assay type: organism-based; settings: in vivo, dose 30-179 mg/kg
[26] = target: T2, Protein cereblon/Stimulator of interferon genes protein (Mus musculus); experiment: In vivo inhibition of STING/TBK1/NF-kappaB signaling in C57BL/6J mouse assessed as decrease in serum CXCL10 level at 25 to 50 mg/kg, ip measured after 72 hrs by ELISA; assay type: functional, organism-based; settings: dose 25-50 mg/kg
[27] = Acute toxicity in C57BL/6J mouse assessed as change in body weight at 61 mg/kg; assay type: organism-based; settings: in vivo
[28] = Acute toxicity in C57BL/6J mouse; settings: in vivo, dose 30 mg/kg
[29] = system: Mus musculus; experiment: Renoprotective activity against cisplatin-induced C57BL/6J mouse acute kidney injury model assessed as survival rate at 25 mg/kg, ip measured after 72 hrs relative to control; assay type: functional
[30] = target: T1, Protein cereblon/Stimulator of interferon genes protein; experiment: PROTAC activity at CRBN/STING in human THP-1 cells assessed as induction of STING degradation measured after 24 hrs by Western blotting analysis; assay type: cell-based
Target sequence in this assay (Q96SW2 whole entry): as the sequence (Q96SW2 whole entry, looked up) above
Target sequence in this assay (Q86WV6 whole entry): as the sequence (Q86WV6 whole entry, looked up) above

[31] = system: HEK-293T; experiment: Cytotoxicity against human HEK293T cells assessed as reduction in cell viability at 0.5 to 120 uM incubated for 24 hrs by MTT assay; assay type: toxicity, cell-based; settings: dose 0.5-120 µM
[32] = system: Mus musculus; experiment: Renoprotective activity against cisplatin-induced C57BL/6J mouse acute kidney injury model assessed as survival rate at 50 mg/kg, ip measured after 72 hrs relative to control; assay type: functional
[33] = target: Transcription factor p65 (Homo sapiens) (UniProt Q04206); experiment: Inhibition of NF-kappaB P65 nuclear translocation in human HK-2 cells at 0.25 to 5 uM by DAPI staining based fluorescence microscopic analysis; assay type: cell-based; settings: dose 0.25-5 µM
[34] = system: Mus musculus; experiment: Renoprotective activity against cisplatin-induced C57BL/6J mouse acute kidney injury model assessed as decrease in fecal occult blood at 25 to 50 mg/kg, ip measured after 72 hrs; assay type: functional, organism-based; settings: dose 25-50 mg/kg
[35] = system: Mus musculus; experiment: Renoprotective activity against cisplatin-induced C57BL/6J mouse acute kidney injury model assessed as reduction in kidney weight at 25 to 50 mg/kg, ip measured after 72 hrs; assay type: functional, organism-based; settings: dose 25-50 mg/kg
[36] = Acute toxicity in C57BL/6J mouse assessed as change in body weight at 88 mg/kg; assay type: organism-based; settings: in vivo
[37] = Toxicity in cisplatin-induced acute kidney injury C57BL/6J mouse model assessed as morphological abnormality in liver at 25 to 50 mg/kg, ip by H and E staining based analysis; assay type: organism-based; settings: in vivo, dose 25-50 mg/kg

T2 sequence (Q3TBT3 whole entry, looked up): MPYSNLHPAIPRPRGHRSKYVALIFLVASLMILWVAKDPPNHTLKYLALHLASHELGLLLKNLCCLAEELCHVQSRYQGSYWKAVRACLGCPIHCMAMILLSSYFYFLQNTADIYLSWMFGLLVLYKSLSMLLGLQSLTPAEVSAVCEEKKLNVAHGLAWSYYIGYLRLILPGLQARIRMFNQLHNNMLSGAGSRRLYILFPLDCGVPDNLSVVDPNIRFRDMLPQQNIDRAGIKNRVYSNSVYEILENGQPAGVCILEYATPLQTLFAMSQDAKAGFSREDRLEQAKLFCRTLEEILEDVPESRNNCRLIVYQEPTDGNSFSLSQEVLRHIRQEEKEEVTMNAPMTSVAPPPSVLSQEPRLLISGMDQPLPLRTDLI
T2 sequence (Q8C7D2 whole entry, looked up): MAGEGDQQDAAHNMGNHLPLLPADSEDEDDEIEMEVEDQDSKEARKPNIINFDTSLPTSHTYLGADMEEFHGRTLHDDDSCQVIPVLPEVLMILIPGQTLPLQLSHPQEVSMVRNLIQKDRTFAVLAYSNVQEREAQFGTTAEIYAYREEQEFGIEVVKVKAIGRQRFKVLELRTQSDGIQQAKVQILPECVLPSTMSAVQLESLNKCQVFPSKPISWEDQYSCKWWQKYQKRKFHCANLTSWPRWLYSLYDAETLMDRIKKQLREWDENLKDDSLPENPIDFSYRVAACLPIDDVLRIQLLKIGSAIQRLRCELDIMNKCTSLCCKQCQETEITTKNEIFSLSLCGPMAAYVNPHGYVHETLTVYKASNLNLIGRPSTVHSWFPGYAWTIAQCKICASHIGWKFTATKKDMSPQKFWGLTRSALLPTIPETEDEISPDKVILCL
Sequence of Transcription factor p65 (Homo sapiens) (Q04206 whole entry): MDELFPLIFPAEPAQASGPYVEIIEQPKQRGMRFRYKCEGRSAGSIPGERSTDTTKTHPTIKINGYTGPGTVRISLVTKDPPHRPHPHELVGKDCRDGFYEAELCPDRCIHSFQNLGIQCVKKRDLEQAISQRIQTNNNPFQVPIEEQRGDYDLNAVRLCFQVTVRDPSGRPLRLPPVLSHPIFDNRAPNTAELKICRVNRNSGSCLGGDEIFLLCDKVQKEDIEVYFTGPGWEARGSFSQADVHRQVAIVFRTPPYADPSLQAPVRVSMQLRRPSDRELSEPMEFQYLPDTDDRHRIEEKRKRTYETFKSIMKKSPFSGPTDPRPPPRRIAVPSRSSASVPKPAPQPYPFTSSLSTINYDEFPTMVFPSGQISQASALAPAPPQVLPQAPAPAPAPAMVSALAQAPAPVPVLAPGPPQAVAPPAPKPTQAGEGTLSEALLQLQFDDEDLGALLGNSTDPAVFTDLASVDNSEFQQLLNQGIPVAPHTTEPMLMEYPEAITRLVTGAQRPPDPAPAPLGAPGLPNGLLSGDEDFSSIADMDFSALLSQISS

O=C(/C=C/C(=O)N1CCN(CC2CCN(c3cccc4c3C(=O)N(C3CCC(=O)NC3=O)C4=O)C2)CC1)Nc1ccc(NC(=O)c2ccc([N+](=O)[O-])o2)cc1 (configuration not stated)
Activity [1]: 25.1 g | Activity [2]: Non-toxic | Activity [3]: Non-toxic | inhibition [4]: Dose-dependent-effect | Activity [5]: Active | MRT inf [6]: 12.6 min | Activity [7]: 15.8% | Activity [8]: Non-toxic | inhibition [9]: Dose-dependent-effect | solubility [10]: 3.317 µg/mL (≈ 4.41 µM) | Activity [11]: 24.2 g | Activity [12]: inactive | MRT last at 12 h [13]: 12 min | Vd [14]: 3.9 L/kg | Activity [15]: inactive | Cmax [16]: 2390 ng/mL | Activity [17]: inactive | Activity [18]: inactive | Activity [19]: Active | Activity [20]: 90.6% | survival [21]: 100% | AUC [22]: 0.73 µg/ml.hr | AUC(0-t) at 12 h [23]: 729 ng·h/mL | inhibition [24]: Active | Activity [25]: Non-toxic | inhibition [26]: Active | Activity [27]: 25.3 g | LD50 [28]: > 179 mg/kg | survival at 25 mg/kg [29]: 78% | DC50 [30]: 620 nM | Activity [31]: Non-toxic | survival at 50 mg/kg [32]: 100% | inhibition [33]: Active | Activity [34]: Active | Activity [35]: Active | Activity [36]: 24.9 g | Activity [37]: Non-toxic
